Measured values as given in US9902713B2, “Neuroprotective compounds and use thereof” (BOARD OF REGENTS OF THE UNIVERSITY OF TEXAS SYSTEM, priority 2013, dated 2018).

Key:
[1] = system: motor neurons in the spinal cord; conditions: previously reported; cited from earlier work
[2] = system: newborn hippocampal neurons; conditions: previously reported; cited from earlier work
[3] = system: dopaminergic neurons within the substantia nigra; conditions: previously reported; cited from earlier work
[4] = system: newborn hippocampal neurons; assay: In vivo neuroprotection assay: BrdU+ newborn hippocampal neurons; design: species or system mice; conditions: for # cell (E6)/mm^3 (number of BrdU+ cells): in vivo neuroprotection assay, Table 2
Procedure: Results. Our most robust assay involves monitoring neuroprotection of newborn hippocampal neurons in mice because this assay gives a simultaneous readout of efficacy, acute toxicity and cell permeability. For this reason, all analogs of P7C3 were evaluated initially by infusing them directly into the left lateral ventricle of environmentally-deprived^ix live mice using a subcutaneously implanted osmotic minipump. Compounds were delivered intracerebroventricularly (ICV) over a 7 day period at a concentration of 10 μM (12 μL/d).^x Coincident with ICV administration of drug, mice were dosed daily with the thymidine analog bromodeoxyuridine (BrdU, IP, 50 mg/kg) to mark newly born hippocampal neural precursor cells. At the end of the 1 week dosing, animals were sacrificed and transcardially perfused. Brain slices were stained with antibodies to BrdU, and the number of surviving neural precursor cells was quantified by counting the number of BrdU+ cells in the hippocampal dentate gyrus. To avoid complications arising from the surgical implantation of the pump, we quantified neurogenesis in the hemisphere opposite to compound infusion. Finally, to obtain consistent data across many animals, the number of BrdU+ cells was normalized to the volume of the dentate gyrus.
In Vivo Neuroprotection Assay. Test compounds were evaluated as described previously.^2 Compounds were infused intracerebroventricularly (i.c.v.) into the left lateral ventricle of four adult (12 week old) wild-type C57BL/J6 mice by means of surgically implanted Alzet osmotic minipumps that delivered solution into animals at a constant rate of 0.5 μl/hour for 7 days. Alternatively, compounds were administered intraperitoneally twice daily. Bromodeoxyuridine (BrdU) was injected intraperitoneally at 50 mg/kg/day for six days during pump infusion. Twenty-four hours after the final BrdU administration, mice were sacrificed by transcardial perfusion with 4% paraformaldehyde at pH 7.4, and their brains were processed for immunohistochemical detection of incorporated BrdU in the SGZ. Dissected brains were immersed in 4% paraformaldehyde overnight at 4° C., then cryoprotected in sucrose before being sectioned into 40 μm thick free-floating sections. Unmasking of BrdU antigen was achieved through incubating tissue sections for two hours in 50% formamide/2×SSC at 65° C., followed by a five minute wash in 2×SSC and subsequent incubation for thirty minutes in 2M HCl at 37° C. Sections were processed for immunohistochemical staining with mouse monoclonal anti-BrdU (1:100). The number of BrdU+ cells in the entire dentate gyrus SGZ in the contralateral hemisphere (opposite side of surgically implanted pump) was quantified by counting BrdU+ cells within the SGZ and dentate gyrus in every fifth section throughout the entire hippocampus and then normalizing for dentate gyrus volume.

[5] = system: 70 kD polypeptide; assay: Photo-crosslinking of 70 kD polypeptide and competition; type: binding; conditions: FIG. 13
Description: Note that non-specific, crosslinked bands are not competed by the “A20” variant, but that crosslinking of the 70 kD band was competed.

Compound	# cell (E6)/mm^3 (number of BrdU+ cells) [4]	increase in the number of BrdU+ cells compared to vehicle ([4]; ICV, 1 week, FIG. 1)	further results
OC(CNc1ccccc1)Cn1c2ccc(Br)cc2c2cc(Br)ccc21 (stereo not shown) [P7C3, 1-(3,6-dibromo-9H-carbazol-9-yl)-3-(phenylamino)propan-2-ol]	30 (E6)/mm^3	–	motor neuron cell death in the spinal cord [1]: minimize motor neuron cell death; activity in the in vivo hippocampal neuroprotection assay (previous studies) [2]: approximately doubled; protection of substantia nigra neurons from MPTP (earlier report) [3]: protect neurons in the substantia nigra
O=C(CCCC[C@@H]1SC[C@@H]2NC(=O)N[C@@H]21)NCCOCCOCCOCCn1cc(COc2ccc(OCC(O)Cn3c4ccc(Br)cc4c4cc(Br)ccc43)cc2)nn1 (stereo partly shown) [P7C3-S318]	20.8 (E6)/mm^3	–	–
C#CCOc1ccc(C(=O)c2ccc(NCC(O)Cn3c4ccc(Br)cc4c4cc(Br)ccc43)cc2)cc1 (stereo not shown) [P7C3-S325]	30.6 (E6)/mm^3	–	–
C#CCOc1ccc(C(=O)c2cccc(NCC(F)Cn3c4ccc(Br)cc4c4cc(Br)ccc43)c2)cc1 (stereo not shown) [P7C3-S326]	25 (E6)/mm^3	–	photo-crosslinking products [5]: photo-crosslinking of 70 kD polypeptide
OC(CNc1ccccn1)Cn1c2ccc(Br)cc2c2cc(Br)ccc21 (stereo not shown) [compound 1, 1-(3,6-dibromo-9H-carbazol-9-yl)-3-(pyridin-2-ylamino)propan-2-ol]	–	–	activity in the in vivo hippocampal neuroprotection assay (previous studies) [2]: maintaining activity
[N-]=[N+]=NCC(F)Cn1c2ccc(Br)cc2c2cc(Br)ccc21 (stereo not shown) [compound 9, 9-(3-azido-2-fluoropropyl)-3,6-dibromo-9H-carbazole]	–	–	number of surviving newborn hippocampal neurons ([4]; ICV, 1 week, FIG. 1): inactive
NCC(F)Cn1c2ccc(Br)cc2c2cc(Br)ccc21 (stereo not shown) [compound 10, 3-(3,6-dibromo-9H-carbazol-9-yl)-2-fluoropropan-1-amine]	–	30%	–
NCC(O)Cn1c2ccc(Br)cc2c2cc(Br)ccc21 (stereo not shown) [compound 14, 1-amino-3-(3,6-dibromo-9H-carbazol-9-yl)propan-2-ol]	–	30%	–
COc1cccc(NCC(O)Cn2c3ccc(Br)cc3c3cc(Br)ccc32)n1 (stereo not shown) [compound 15, 1-(3,6-dibromo-9H-carbazol-9-yl)-3-((6-methoxypyridin-2-yl)amino)propan-2-ol]	–	30%	–
